Data on 25 compounds can be found in ChEMBL document CHEMBL5131501, “Discovery and evaluation of chalcone derivatives as novel potential anti-Toxoplasma gondii agents” (Eur J Med Chem, 2022).

Calls of active or inactive are those of the source. The rule behind the calls is not given here.

One test concerns Toxoplasma gondii. As to the kind of experiment: Anti-tachyzoite activity against Toxoplasma gondii RH infected in human HFF cells assessed as mortality rate at 50 uM incubated for 2 hrs by trypan blue staining based light microscopic analysis. The test is classed as functional, organism-based.
Details: not given
On to `COc1ccc(C(=O)/C=C/c2ccc(O)cc2)cc1OC`, for which the result was Active.
For `CCNc1ccc(C(=O)/C=C/c2ccccc2Br)cc1`, the outcome was Active.
On the same count and under the same terms, to `COc1ccc(C(=O)/C=C/c2ccccc2Cl)cc1` belongs “Active”; to `COc1ccc(C(=O)/C=C/c2ccccc2Cl)cc1O`, “Active”; to `CCNc1cccc(C(=O)/C=C/c2cccc(OC)c2OC)c1`, “Active”.
The same measure, in the same setting: to `COc1cccc(/C=C/C(=O)c2cccc(NC(C)=O)c2)c1OC` belongs “Active”.
As for `COc1cccc(/C=C/C(=O)c2ccc(NC(C)=O)cc2)c1OC`, the result was Active.
Same read-out and setting: to `COc1ccc(C(=O)/C=C/c2ccc(O)cc2)cc1` belongs “Active”; to `O=C(/C=C/c1ccccc1Br)c1cc(F)cc(F)c1`, “Active”.
On the same count and under the same terms, to `COc1cccc(CCC(=O)c2ccc(N)cc2)c1OC` belongs “Active”.
On the same count and under the same terms, to `COc1cccc(/C=C/C(=O)c2cccc(NC(C)C)c2)c1OC` belongs “Active”; to `COc1cccc(CCC(=O)c2cccc(N)c2)c1OC`, “Active”.
For `CC(C)Nc1ccc(C(=O)/C=C/c2ccccc2Br)cc1`, the outcome was Active.
Still for that read-out and setting: to `CC(=O)Nc1ccc(C(=O)/C=C/c2ccc(Cl)c(Cl)c2)cc1` belongs “Active”.
On the same count and under the same terms, to `CCNc1ccc(C(=O)/C=C/c2cccc(OC)c2OC)cc1` belongs “Active”; to `O=C(/C=C/c1ccc(Cl)c(Cl)c1)c1cc(F)cc(F)c1`, “Active”.
Take `CC(=O)Nc1ccc(C(=O)/C=C/c2ccccc2Br)cc1`: the outcome was Active.
Still for that read-out and setting: to `CCNc1ccc(C(=O)/C=C/c2ccc(Cl)c(Cl)c2)cc1` belongs “Active”; to `COc1cccc(/C=C/C(=O)c2ccc(NC(C)C)cc2)c1OC`, “Active”.
For `Nc1ccc(C(=O)CCc2ccccc2Br)cc1`, the result was Active.
Consider `Nc1ccc(C(=O)CCc2ccc(Cl)c(Cl)c2)cc1`, for which the outcome was Active.
Still for that read-out and setting: to `O=C(/C=C/c1ccccc1Cl)c1cc(F)cc(F)c1` belongs “Active”; to `CC(C)Nc1ccc(C(=O)/C=C/c2ccc(Cl)c(Cl)c2)cc1`, “Active”; to `COc1ccc(C(=O)/C=C/c2ccccc2OC)cc1O`, “Active”.

The subject of another test is Toxoplasma gondii. The experiment in a line: Anti-tachyzoite activity against Toxoplasma gondii RH infected in kunming mouse model assessed as decrease in malondialdehyde lipid peroxidation in liver at 100 mg/kg, ip administered daily for 4 days after 4 hrs post infection. The note with it: time 4.0 day. The test is classed as functional, organism-based.
Regarding `CO[C@@H]1[C@@H](O[C@@H]2O[C@H](C)[C@@H](O[C@H]3C[C@@](C)(O)[C@@H](O)[C@H](C)O3)[C@H](N(C)C)[C@H]2O)[C@@H](CC=O)C[C@@H](C)[C@@H](O[C@H]2CC[C@H](N(C)C)[C@@H](C)O2)/C=C/C=C/C[C@@H](C)OC(=O)C[C@H]1OC(C)=O`, the result was Active.

For the next test, the system named is Toxoplasma gondii. As to the kind of experiment: Anti-tachyzoite activity against Toxoplasma gondii RH infected in Kunming mouse model assessed as inhibition of growth rate in peritoneal fluid at 100 mg/kg, ip administered daily for 4 days after 4 hrs post infection. The note with it: time 4 day. On the set-up: scale not given: the % may be the effect or the level left. The test is classed as functional.
As for `CO[C@@H]1[C@@H](O[C@@H]2O[C@H](C)[C@@H](O[C@H]3C[C@@](C)(O)[C@@H](O)[C@H](C)O3)[C@H](N(C)C)[C@H]2O)[C@@H](CC=O)C[C@@H](C)[C@@H](O[C@H]2CC[C@H](N(C)C)[C@@H](C)O2)/C=C/C=C/C[C@@H](C)OC(=O)C[C@H]1OC(C)=O`, the Activity is given as 74.6%.

The next test deals with Toxoplasma gondii. The experiment in a line: Anti-tachyzoite activity against Toxoplasma gondii RH infected in kunming mouse model assessed as decrease in serum ALT level at 100 mg/kg, ip administered daily for 4 days after 4 hrs post infection. The test is classed as functional, organism-based. The note with it: time 4.0 day.
In the case of `CO[C@@H]1[C@@H](O[C@@H]2O[C@H](C)[C@@H](O[C@H]3C[C@@](C)(O)[C@@H](O)[C@H](C)O3)[C@H](N(C)C)[C@H]2O)[C@@H](CC=O)C[C@@H](C)[C@@H](O[C@H]2CC[C@H](N(C)C)[C@@H](C)O2)/C=C/C=C/C[C@@H](C)OC(=O)C[C@H]1OC(C)=O`, the result was Active.

In the next test the test system is Toxoplasma gondii. As to the kind of experiment: Anti-tachyzoite activity against Toxoplasma gondii RH infected in kunming mouse model assessed as decrease in serum AST level at 100 mg/kg, ip administered daily for 4 days after 4 hrs post infection. The test is classed as functional, organism-based. Particulars: time 4.0 day.
For the compound `CO[C@@H]1[C@@H](O[C@@H]2O[C@H](C)[C@@H](O[C@H]3C[C@@](C)(O)[C@@H](O)[C@H](C)O3)[C@H](N(C)C)[C@H]2O)[C@@H](CC=O)C[C@@H](C)[C@@H](O[C@H]2CC[C@H](N(C)C)[C@@H](C)O2)/C=C/C=C/C[C@@H](C)OC(=O)C[C@H]1OC(C)=O`, the result was Active.
